# Experimental data from patent US4735793A, “Carboxy, carboalkoxy and carbamile substituted isonitrile radionuclide complexes” (Massachusetts Institute of Technology, priority 1985, dated 1988).
# Assays:
# [1] = rabbit, in vivo, iv
# Description: (§2) Rabbits were anesthetized with Ketamine and Nembutal™ and positioned beneath a gamma camera to allow continuous collection of data including a chest and abdomen view. 1 mCi of the test agent as specified below was injected via an ear vein and data collected continuously at 60 second intervals for 60 minutes. Curves were generated by drawing regions of interest over selected tissues and normalizing to counts per minute per pixel.
# The time of maximum activity in the liver post injection is "^t max", while "t1/2" is the apparent half life of the clearance curve from ^t max. The latter data is an estimate based on data collected to 60 minutes after administration. This assumes a simple exponential curve with time, although more extensive studies might indicate more components are actually present.
# [2] = Scintigraphic images in animal and human tests; format: in vivo; details: for usefulness for imaging the heart: in vivo
# Description: Scintigrapic Imaging Procedure in Animals
# (§1) Two rabbits were anesthetized with sodium pentobarbital and injected via an ear vein with 3-8 mCi of ^99m Tc-isonitrile complex. One rabbit was imaged using a gamma camera equipped with a pinhole collimator positioned directly over the chest. Three minute static images were acquired at 5, 10, […], 40, 50 and 60 minutes post injection. A second rabbit was used to investigate the relative whole body distribution of activity for 60 minutes post-injection. Immediately post-injection, 300 thousand count images were acquired in the following sequence of projections: chest, anterior heart, whole body, anterior heart, left lateral whole body, anterior heart, lateral heart, anterior heart.
# Swine were sedated with intramuscular injections of Ketamine and acepromazine, and anesthetized with sodium pentobarbital. The animals were positioned for anterior image acquisition over the chest under a low energy, high resolution collimator and injected with 10-12 mCi ^99m Tc-isonitrile complex via a leg vein. The liver was covered with a lead shield, and three minute images were acquired at 5, 10, 20, 30, 40, 50 and 60 minutes post-injection.
# After anesthetization with sodium pentobarbital, dogs were injected with 25 mCi of ^99m Tc and positioned for anterior chest image acquisition using a pinhole collimator. Again, three minute images were obtained at 5, 10, 20, 30, 40, 50 and 60 minutes post-injection.
# [3] = rabbit, in vivo
# Description: as §2
# The complexes were prepared, injected and imaged as described above.
# [4] = Scintigraphic imaging of the heart in rabbits; format: in vivo, rabbit
# Description: as §1
# FIG. 6(a) is a scintigraphic image of a rabbit injected with a complex of ^99m Tc-carboethoxyisopropylisonitrile at 5 minutes after injection, while FIG. 6(b) is a scintigraphic image of the same rabbit at 15 minutes after injection. FIG. 7(a) is a scintigraphic image of a rabbit injected with a complex of ^99m Tc-2-carboethoxyethylisonitrile at 1, 10, 15 and 20 minutes post injection. FIG. 7 (b) is a scintigraphic image of a rabbit injected with the above complex at 31 minutes post-injection. The heart is at (A), the gall bladder at (B) and the site of injection at (C). The interpretation of these images is known to the person of ordinary skill in this field.
Compound,t1/2 (apparent half life of the liver clearance curve from tmax) [1],tmax (time of maximum activity in the liver post injection) [1],image quality ([2]; animal and human tests),usefulness for imaging the heart [2],lung clearance [3],"resolution of the apex of the heart ([4]; by 20 minutes after injection, after liver clearance)",resolution of the myocardium ([4]; five minutes after injection),"visualization of the apex of the heart ([4]; initially, background noise from liver uptake)"
"^99m Tc-Hexakis-2-carboethoxyethylisonitrile Technetium (I) [CNCH2 CH2 R, R = --COOC2 H5]",17 min,2 min,excellent images in both animal and human tests,particularly useful for imaging the heart,,,,
"[C-]#[N+]C [CNCH2 R, R = --H, methyl isonitrile, reference compound]",88 min,14 min,,,,,,
"Hexakis carbomethoxymethylisonitrile Technetium Cation [CNCH2 R, R = --COOCH3]",37 min,1 min,,,,,,
"[C-]#[N+]C(C)C [CNC(CH3)2 R, R = --H, isopropylisonitrile, reference compound]",98 min,5 min,,,,,,
"[C-]#[N+]CC [CNCH(R)CH3, R = --H, ethyl isonitrile, reference compound]",270 min,2 min,,,,,,
"^99m Tc-Hexakis-1-carbomethoxyisopropylisonitrile Technetium (I) [CNC(CH3)2 R, R = --COOCH3]",35 min,3 min,,particularly useful for imaging the heart,rapid lung clearance,excellent resolution of the apex,very good to excellent resolution of the myocardium,initially prevents clear visualization of the apex of the heart
"^99m TC-hexakis carbo-t-butoxymethylisonitrile technetium [CNCH2 R, R = --COO^t C4 H9]",25 min,5 min,,,,,,
